Test results: patent publication US20100234417A1, “THYROTROPIN RELEASING HORMONE RECEPTOR-OREXIN RECEPTOR HETERO-DIMERS/-OLIGOMERS” (DIMERIX BIOSCIENCE PTY LTD., priority 2006, published 2010)
Ends that are not written are not given here.

Key:
[1] = target: T1, thyrotropin releasing hormone receptor (TRHR) (Rattus norvegicus, UniProt Q01717); test: eBRET/BRET beta-arrestin recruitment to TRHR/Rluc without IG3 (pcDNA3) in HEK293 cells; assay type: cell-based
T1 construct: expressed in transfected cells; host or cells: HEK293 (HEK293FT)
T1 sequence (Q01717 1-412): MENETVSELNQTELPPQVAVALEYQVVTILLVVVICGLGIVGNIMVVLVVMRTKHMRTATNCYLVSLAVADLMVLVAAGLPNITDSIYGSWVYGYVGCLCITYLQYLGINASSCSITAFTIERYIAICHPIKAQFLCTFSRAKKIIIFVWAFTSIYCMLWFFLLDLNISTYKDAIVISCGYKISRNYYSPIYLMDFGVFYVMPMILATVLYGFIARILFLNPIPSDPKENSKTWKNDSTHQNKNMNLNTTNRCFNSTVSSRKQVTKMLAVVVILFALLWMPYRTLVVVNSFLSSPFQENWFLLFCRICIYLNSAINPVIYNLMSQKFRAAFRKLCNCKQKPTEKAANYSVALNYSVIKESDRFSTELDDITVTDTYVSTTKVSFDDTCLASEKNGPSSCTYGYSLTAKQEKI
Excerpt: Briefly, referring to FIGS. 1 to 3, the IGs are provided in the form of the two receptors (TRHR and OxR). One of the two is attached to an RC (IG1-RC1, IG3). A second IG (IG2-RC2) is derived from a molecule that interacts with the receptors upon ligand binding (e.g. beta-arrestin, or a mutant thereof). The detection system not only detects the formation of the TRHR-OxR heterodimer but can distinguish whether a ligand or drug acts as an agonist, partial agonist, antagonist, inverse agonist or partial inverse agonist at the receptor hetero-dimer.
Cells were seeded in 6-well plates at a density of approximately 630,000 cells/well (HEK293FT) or approximately 150,000 cells/well (COS-7) and maintained at 37° C., 5% CO2 in Complete Media (DMEM containing 0.3 mg/ml glutamine, 100 IU/ml penicillin and 100 μg/ml streptomycin (Gibco)) supplemented with 10% fetal calf serum (FCS; Gibco). Transient transfections were carried out 24 h after seeding using GeneJuice (Novagen) or Metafectene (Biontex) according to manufacturer instructions. 24 h post-transfection, cells were washed with PBS, detached using 0.05% trypsin/0.53 mM EDTA, resuspended in HEPES-buffered phenol red free Complete Media containing 5% FCS and added to a poly-L-lysine-coated white microplate (Nunc). 48 h post-transfection, eBRET assays were carried out following pre-incubation of cells with EnduRen™ (Promega) at a final concentration of 30-40 μM, at 37° C., 5% CO2 for 2 h. For original BRET studies, the HEPES-buffered phenol red free Complete Media was replaced with PBS and coelenterazine h (Molecular Probes) added to a final concentration of 5 μM immediately prior to commencing the assay. BRET measurements were taken at 37° C. using the Victor Light plate reader with Wallac 1420 software (Perkin-Elmer). Filtered light emissions were sequentially measured for 3-5 s in each of the ‘donor wavelength window’ (400-475 nm) and ‘acceptor wavelength window’ (>500 nm for EGFP or 520-540 nm for EYFP, Topaz (TYFP) or Venus). The BRET signal observed between interacting proteins is normalized by subtracting the background BRET ratio. This can be done in one of two ways (see Pfleger et al. (2006) Cell Signal 18, 1664-1670; Pfleger et al. (2006) Nat Protoc 1, 336-344): 1) the ratio of light emission through the acceptor wavelength window over the 400-475 nm emission for a cell sample containing only the donor construct is subtracted from the same ratio for a sample containing the interacting acceptor and donor fusion proteins; 2) the ratio of light emission through the ‘acceptor wavelength window’ over the 400-475 nm emission for a cell sample treated with vehicle is subtracted from the same ratio for a second aliquot of the same cell sample treated with ligand. In the following examples, the first calculation will be used, unless the signal is described as the ‘ligand-induced BRET ratio’. Alternatively, and particularly when illustrating z-factor data (Zhang et al. (1999) J Biomol Screen 4, 67-73), the BRET signal observed between interacting proteins can be shown in conjunction with (as oppose to being subtracted by) the background BRET ratio to evaluate error associated with the BRET signal observed between interacting proteins and the error associated with the background BRET ratio independently. In this case, data are shown as ‘fluorescence/luminescence’ being the ratio of light emission through the ‘acceptor wavelength window’ over the 400-475 nm emission for a particular cell sample. Unless otherwise stated, BRET signals were measured in 96-well microplates.
Referring now to FIG. 4, eBRET signals were measured from cells transiently co-expressing TRHR/Rluc and barr2/Venus with either pcDNA3, OxR2, CXCR2, HA-MC3R, HA-MC4R, D2LR or D2SR following the treatment of each with their respective ligands.
Referring now to FIG. 5, eBRET signals were measured from cells transiently co-expressing TRHR/Rluc and EGFP/barr1 or EGFP/barr2 with either pcDNA3 or OXR2. […]

TRHR335 with OxR2 = test: eBRET/BRET: truncated TRHR335/Rluc + tagged beta-arrestin + OxR2 as IG3; assay type: cell-based
Protocol: Cells were seeded in 6-well plates at a density of approximately 630,000 cells/well (HEK293FT) or approximately 150,000 cells/well (COS-7) and maintained at 37° C., 5% CO2 in Complete Media (DMEM containing 0.3 mg/ml glutamine, 100 IU/ml penicillin and 100 μg/ml streptomycin (Gibco)) supplemented with 10% fetal calf serum (FCS; Gibco). Transient transfections were carried out 24 h after seeding using GeneJuice (Novagen) or Metafectene (Biontex) according to manufacturer instructions. 24 h post-transfection, cells were washed with PBS, detached using 0.05% trypsin/0.53 mM EDTA, resuspended in HEPES-buffered phenol red free Complete Media containing 5% FCS and added to a poly-L-lysine-coated white microplate (Nunc). 48 h post-transfection, eBRET assays were carried out following pre-incubation of cells with EnduRen™ (Promega) at a final concentration of 30-40 μM, at 37° C., 5% CO2 for 2 h. For original BRET studies, the HEPES-buffered phenol red free Complete Media was replaced with PBS and coelenterazine h (Molecular Probes) added to a final concentration of 5 μM immediately prior to commencing the assay. […] Filtered light emissions were sequentially measured for 3-5 s in each of the ‘donor wavelength window’ (400-475 nm) and ‘acceptor wavelength window’ (>500 nm for EGFP or 520-540 nm for EYFP, Topaz (TYFP) or Venus). The BRET signal observed between interacting proteins is normalized by subtracting the background BRET ratio. […] In the following examples, the first calculation will be used, unless the signal is described as the ‘ligand-induced BRET ratio’. […] In this case, data are shown as ‘fluorescence/luminescence’ being the ratio of light emission through the ‘acceptor wavelength window’ over the 400-475 nm emission for a particular cell sample. Unless otherwise stated, BRET signals were measured in 96-well microplates.
Referring now to FIG. 9, eBRET signals were measured from cells transiently co-expressing TRHR335/Rluc and EGFP/barr1 with either OxR2 or TRHR.

[2] = TRHR/Rluc only (no OxR2) + EGFP/barr1 or EGFP/barr2, FIG. 5
[3] = TRHR335/Rluc + EGFP/barr1 + OxR2, FIG. 9

Compound | eBRET signal ([1]; OxA added to cells lacking HA-OxR2, FIG. 7) | cumulative eBRET signal ([1]; TRHR/Rluc + EGFP/barr1, 0 μg OxR2 DNA/well, 10^−6M OxA, 83 mins, FIG. 16) | effect of OxA on TRH-induced eBRET signal [1, 2] | time for eBRET signal to reach plateau (TRHR335 with OxR2; [3]) | eBRET signal peak ([1]; HEK293, TRHR/Rluc + barr2/Venus + pcDNA3, ligand 10^−6M, 37 C, FIG. 4) | time to eBRET signal peak ([1]; HEK293, TRHR/Rluc + barr2/Venus + pcDNA3, ligand 10^−6M, FIG. 4) | dose-response Hill slope ([1]; TRHR/Rluc + barr2/Venus + pcDNA3, FIG. 10) | eBRET signal ([1]; TRHR/Rluc only (no HA-OxR2), FIG. 7) | eBRET signal ([1]; TRHR/Rluc only (no OxR2) + EGFP/barr1 or EGFP/barr1R169E, FIG. 8) | eBRET signal [1, 2] | eBRET signal with EGFP/barr1R169E relative to EGFP/barr1 ([1]; TRHR/Rluc only (no OxR2), FIG. 8) | eBRET signal (TRHR335 with OxR2; [3]) | BRET signal (dose response) (TRHR335 with OxR2; TRHR335/Rluc + barr2/Venus + OxR2, FIG. 15)
OxA: orexin A; known orexin receptor modulator, used as IG3 ligand (modulator) (QPLPDCCRQKTCSCRLYELLHGAGNHAAGILTL; ends and bridges not checked; cysteine pairing not given here; UniProt O43612 34-66, looked up) | No increase in eBRET signal above baseline | no signal was recorded | no difference | about 20 minutes |  |  |  |  |  |  |  |  | 
NC(=O)[C@@H]1CCCN1C(=O)[C@H](Cc1cnc[nH]1)NC(=O)[C@@H]1CCC(=O)N1 [TRH, pGlu-His-Pro-NH2] |  |  |  |  | greater than 0.17 | Within the first minute | approximately 1 | rapid increase in eBRET signal reaching a peak in the first few minutes | rapid increase in eBRET signal reaching a peak in the first few minutes | rapid stimulation of the eBRET signal | lower than that for EGFP/barr1 | no eBRET signal above baseline | does not result in a BRET signal
